Experimental findings from patent US12527773B2, “Flavi-block: a pan-flavivirus inhibitor” (Baden-Württemberg Stiftung GmbH, priority 2020, dated 2026) are described below.

Data set [1] relates to hematopoietic stem cell formation. As to the kind of experiment: Effect on zebrafish hematopoietic stem cell formation (in situ runx-1+c-myb). The note with it: 36 hpf. Format: in vivo. The procedure:
Zebrafish embryos were exposed 20-30 min after fertilization to differing concentrations of the compounds C10 and D1 (5 μM; 15 μM; 25 μM) or to medium containing the corresponding solvent (DMSO) concentration. Therefore, 3-5 embryos were sorted into each of three wells of a 96 well plate containing 200 μl of medium. For phenotype analysis, triplicates were imaged after 6-7 h post fertilization (hpf) at approximately shield stage, after 24 hpf and after 48 hpf. Dead +unfertilized embryos were removed. For imaging at 24 hpf +48 hpf; embryos were anesthetized using MESAB. (A) Diagramm showing the percentage of embryos at each time point either developing normal (blue color) or with the indicated phenotype. (B) representative images of embryos treated with the indicated compounds, or controls at the respective time points. (C) To additionally elucidate the influence on hematopoietic stem cell formation, approx. half of the embryos were sampled at 36 hpf and an in situ staining for runx-1+c-myb was performed. Shown are representative images of hematopoietic stem cell formation with the treatment indicated.
Embryos were exposed 20-30 min after fertilization to differing concentrations of the compounds C10 and D1 (5 μM; 15 μM; 25 μM) or to medium containing the corresponding solvent (DMSO) concentration. […]

In another data set the target is HCV core protein (Hepatitis C virus genotype 1a, UniProt P27958). As to the kind of experiment: Interaction with and crosslinking of HCV core protein (Western blot). Conditions: purified core protein. (In general: A western blot detects proteins with antibodies after separation by electrophoresis.)
Sequence of HCV core protein (P27958 1-117): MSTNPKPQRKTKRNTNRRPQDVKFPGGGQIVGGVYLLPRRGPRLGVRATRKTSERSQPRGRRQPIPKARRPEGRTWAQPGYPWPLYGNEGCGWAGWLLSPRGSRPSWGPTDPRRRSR
The next data set has as its system DENV4. The data set is described as follows: Plaque assay of released virus, DENV4-infected Vero cells. Type of data set: cell-based. The note with it: Dengue virus. The procedure: Vero cells were infected with DENV1-4 at an MOI of 1 for 2 h (post infection, p.i., (A)), after which virus was removed, and fresh maintenance medium containing 2% FCS together with the indicated concentration of C10 added. For co-treat condition (c.t., (B)), Vero cells were infected with DENV1-4 at an MOI of 1 in the presence of C10 for 2 h, followed by removal of the virus/C10 inoculums, and addition of fresh 2% fetal calf serum maintenance medium. […] Results represent the mean ±SD for duplicate wells from a single assay, representative of 2 independent experiments (cf. Tables 2A and 2B, infra, for pooled data).
Vero and BHK-21 cells were maintained in DMEM media supplemented with 10% heat-inactivated FBS at 37° C. in a humidified incubator supplemented with 5% CO2; A549 cells were maintained in F-12K medium supplemented with 10% heat-inactivated Fetal Bovine Serum (FBS), 2 mM L-glutamine, 50 U/I penicillin, 0.05 mg/l streptomycin. […] Viral titer was subsequently determined by plaque assay (see below).
Vero cells were seeded into 24-well plates at a density of 2×10^5 cells/well and grown overnight in culture medium at 37° C. with 5% CO2 prior to infection with RSV, KUNV, ZIKV as indicated. […] The stain was removed by rinsing the cells with tap water, and the viral plaques were counted visually. […]

The next data set is described as follows: in vitro. Conditions: for % Remain. Mean: mouse plasma, 1 μM, 37° C. On the procedure: Plasma stability is defined as the percentage of parent compound remaining in plasma over the time.
Incubations were carried out in 5 aliquots of 70 μL each (one for each time point), in duplicates. Test compounds (1 μM, final DMSO concentration 1%) were incubated at 37° C. with shaking at 100 rpm. Five time points over 120 minutes have been analyzed. The reactions were stopped by adding 420 μL of acetonitrile-water mixture (90:10) with subsequent plasma proteins sedimentation by centrifuging at 5500 rpm for 5 minutes. Supernatants were analyzed by the HPLC system coupled with tandem mass spectrometer. The percentage of the test compounds remaining after incubation in plasma and their half-lives (T1/2) were calculated.

The subject of another data set is Huh7.5 cells. The data set is described as follows: Viability of treated Huh7.5 cells by MTT assay. Format: cell-based. Conditions: 10 μM, 24 h after treatment. The procedure: Huh7.5 cells were electroporated with HCV-JC1-Luc (reporter virus expressing luciferase via IRES) RNA and treated 24 h later with the best 20 candidates (10 μM). After another 24 h the supernatants were harvested. To quantify infectious particles, untreated Huh7.5 cells were inoculated with the supernatants and 36 h later the luciferase activity was measured. The viability of the same cells was determined 24 h after treatment with inhibitor by MTT assay (tetrazolium salt which is reduced in metabolically active cells resulting in a color change). For both parameters, 100% corresponds to the release or viability of the untreated or DMSO treated control. uninf.=not infected; untr.=not treated. Mean values and SD were derived from n =3 independent infections.
The viability of the same cells was determined 24 h after treatment with the candidate substances by MTT assay (tetrazolium salt reduced in metabolically active cells resulting in a color change) (FIG. 2). For both parameters, 100% of release or viability corresponds to the untreated or DMSO-treated control.
A general note: Formazan colour is commonly taken as a measure of viable cells.

For data set [2], the system named is VP1 polyomavirus, LP1 HPV16, p24 HIV, BSA, GFP. The data set is described as follows: Specificity in the cross-linking assay: other capsid and non-related proteins. Type of data set: biochemical. On the procedure:
DSS was included as a positive control.
To study the specificity of C10, capsid proteins of other viruses (VP1 polyomavirus, LP1 HPV16, and p24 HIV) as well as non-related proteins (BSA, GFP), were incubated in the so-called cross-linking assay, with DSS or C10.

“Also recorded” adds a separate entry of the source. Like-named read-outs stand apart in the source and are kept apart here.

For `CCN1/C(=C\C=C\c2sc3cc(NC(C)=O)ccc3[n+]2CC)Sc2cc(NC(C)=O)ccc21.[I-]` [C10, 6-acetamido-2-((1E,3E)-3-(6-acetamido-3-ethylbenzo[d]thiazol-2(3H)-ylidene)prop-1-en-1-yl)-3-ethylbenzo[d]thiazol-3-ium iodide], the “hematopoietic stem cell formation” value in data set [1] is recorded as “no difference to the WT embryos”. Further, on HCV core protein, the “cross-linking / oligomerization of HCV core protein” value is listed as “leads to cross-linking of the core protein; also recorded: triggers the oligomerization of HCV core protein”. For the same compound, the EC50 (commonly the concentration giving half of the maximal effect) in the data set with DENV4 (read-out: EC50 from plaque assays, DENV4, c.t.) is 0.05 µM; in the data set on DENV4 (read-out: EC50 from plaque assays, DENV4, p.i.), 0.79 µM. Moreover, the “% Remain. Mean” value in “in vitro” (0 min) came out at 100%; in the data set “in vitro” (20 min), 93%; in “in vitro” (40 min), 90%; in “in vitro” (60 min) it was 82%; in “in vitro” (120 min), 57%. Further, in “in vitro” (mouse, plasma), the half-life (as a rule, how long it takes for the measured level to halve) at 1 μM was 3.68 h. Besides, the “stability in mouse plasma” value in the data set “in vitro” (mouse, plasma) is listed as “good stability”. The “cell viability (MTT)” value with Huh7.5 cells is reported as “no negative effect on cell viability”. For the same compound, the “crosslinking effect on other capsid and non-related proteins” value in data set [2] is on record as “either no effect on these proteins or it starts at concentrations around 200 times higher than the IC50”.
